#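 Five concentrations, 48 hours, 96-well plates. GI50 = concentration required for 50% inhibition of growth.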 Active and inactive are the calls of the source. Rule as the data show it: active = GI50 up to about 1.1 µM and inactive = higher.
# Tests used:
# Assay in all cases: inhibition of tumour cell growth, NCI panel, 48 h
# [1] = tested on: DU-145
# [2] = tested on: SR
# [3] = tested on: SN12C
# [4] = tested on: UO-31
# [5] = tested on: Hs-578T
# [6] = tested on: UACC-257
# [7] = tested on: NCI-H460
# [8] = tested on: U-251
# [9] = tested on: NCI-H23
# [10] = tested on: ACHN
# [11] = tested on: IGROV-1
# [12] = tested on: HOP-92
# [13] = tested on: COLO 205
# [14] = tested on: LOX IMVI
# [15] = tested on: MDA-N
# [16] = tested on: Malme-3M
# [17] = tested on: OVCAR-5
# [18] = tested on: HT-29
# [19] = tested on: MDA-MB-231
# [20] = tested on: OVCAR-4
# [21] = tested on: EKVX
# [22] = tested on: TK-10
# [23] = tested on: HCT-116
# [24] = tested on: 786-0
# [25] = tested on: A549
# [26] = tested on: OVCAR-3
# [27] = tested on: NCI-H522
# [28] = tested on: HCC 2998
# [29] = tested on: NCI/ADR-RES
# [30] = tested on: SK-OV-3
# [31] = tested on: SNB-75
# [32] = tested on: SW-620
# [33] = tested on: SNB-19
# [34] = tested on: K562
# [35] = tested on: RPMI-8226
# [36] = tested on: HL-60
# [37] = tested on: MDA-MB-435
# [38] = tested on: A498
# [39] = tested on: HOP-62
# [40] = tested on: MCF7
# [41] = tested on: SF-539
# [42] = tested on: SK-MEL-5
# [43] = tested on: PC-3
# [44] = tested on: OVCAR-8
# [45] = tested on: SK-MEL-2
# [46] = tested on: NCI-H226
# [47] = tested on: SK-MEL-28
# [48] = tested on: MOLT-4
# [49] = tested on: KM12
# [50] = tested on: RXF 393
# [51] = tested on: SF-268
# [52] = tested on: M14
# [53] = tested on: UACC-62
# [54] = tested on: CAKI-1
# [55] = tested on: T47D
# [56] = tested on: CCRF-CEM
# [57] = tested on: SF-295
# [58] = tested on: HCT-15
# [59] = tested on: BT-549
compound,measurement,setting,value
COc1ccc2c(c1)c1c3c(ccc4ncn2c43)N(CCN(C)C)CCN=1,GI50,[1],0.942 µM (active)
same,GI50,[2],0.0302 µM (active)
same,GI50,[3],0.316 µM (active)
same,GI50,[4],0.404 µM (active)
same,GI50,[5],1.06 µM (active)
same,GI50,[6],1.85 µM (inactive)
same,GI50,[7],0.176 µM (active)
same,GI50,[8],0.363 µM (active)
same,GI50,[9],0.968 µM (active)
same,GI50,[10],0.701 µM (active)
same,GI50,[11],1.31 µM (inactive)
same,GI50,[12],1.49 µM (inactive)
same,GI50,[13],0.356 µM (active)
same,GI50,[14],0.378 µM (active)
same,GI50,[15],0.438 µM (active)
same,GI50,[16],1.2 µM (inactive)
same,GI50,[17],0.676 µM (active)
same,GI50,[18],0.135 µM (active)
same,GI50,[19],0.476 µM (active)
same,GI50,[20],0.309 µM (active)
same,GI50,[21],0.586 µM (active)
same,GI50,[22],1.49 µM (inactive)
same,GI50,[23],0.298 µM (active)
same,GI50,[24],0.19 µM (active)
same,GI50,[25],0.359 µM (active)
same,GI50,[26],0.538 µM (active)
same,GI50,[27],0.19 µM (active)
same,GI50,[28],0.422 µM (active)
same,GI50,[29],0.438 µM (active)
same,GI50,[30],0.908 µM (active)
same,GI50,[31],0.764 µM (active)
same,GI50,[32],0.146 µM (active)
same,GI50,[33],0.405 µM (active)
same,GI50,[34],0.0488 µM (active)
same,GI50,[35],1.48 µM (inactive)
same,GI50,[36],0.333 µM (active)
same,GI50,[37],0.378 µM (active)
same,GI50,[38],1.42 µM (inactive)
same,GI50,[39],0.362 µM (active)
same,GI50,[40],0.288 µM (active)
same,GI50,[41],0.362 µM (active)
same,GI50,[42],0.91 µM (active)
same,GI50,[43],0.357 µM (active)
same,GI50,[44],0.284 µM (active)
same,GI50,[45],1.03 µM (active)
same,GI50,[46],1.14 µM (inactive)
same,GI50,[47],0.897 µM (active)
same,GI50,[48],0.043 µM (active)
same,GI50,[49],0.374 µM (active)
same,GI50,[50],1.12 µM (active)
same,GI50,[51],0.836 µM (active)
same,GI50,[52],0.895 µM (active)
same,GI50,[53],1.23 µM (inactive)
same,GI50,[54],1.71 µM (inactive)
same,GI50,[55],1.52 µM (inactive)
same,GI50,[56],0.127 µM (active)
same,GI50,[57],0.494 µM (active)
same,GI50,[58],0.303 µM
CN(N)C(=O)NCCCl,GI50,[1],> 100 µM (inactive)
same,GI50,[2],> 100 µM (inactive)
same,GI50,[3],> 100 µM (inactive)
same,GI50,[4],> 100 µM (inactive)
same,GI50,[5],> 100 µM (inactive)
same,GI50,[6],> 100 µM (inactive)
same,GI50,[7],> 100 µM (inactive)
same,GI50,[8],> 100 µM (inactive)
same,GI50,[9],> 100 µM (inactive)
same,GI50,[10],> 100 µM (inactive)
same,GI50,[11],> 100 µM (inactive)
same,GI50,[12],> 100 µM (inactive)
same,GI50,[13],> 100 µM (inactive)
same,GI50,[14],> 100 µM (inactive)
same,GI50,[15],> 100 µM (inactive)
same,GI50,[16],> 100 µM (inactive)
same,GI50,[17],> 100 µM (inactive)
same,GI50,[18],> 100 µM (inactive)
same,GI50,[19],1.3 µM (inactive)
same,GI50,[20],> 100 µM (inactive)
same,GI50,[21],> 100 µM (inactive)
same,GI50,[22],> 100 µM (inactive)
same,GI50,[23],> 100 µM (inactive)
same,GI50,[24],> 100 µM (inactive)
same,GI50,[25],> 100 µM (inactive)
same,GI50,[26],> 100 µM (inactive)
same,GI50,[27],> 100 µM (inactive)
same,GI50,[28],> 100 µM (inactive)
same,GI50,[29],0.021 µM (active)
same,GI50,[30],> 100 µM (inactive)
same,GI50,[31],> 100 µM (inactive)
same,GI50,[32],> 100 µM (inactive)
same,GI50,[33],> 100 µM (inactive)
same,GI50,[34],> 100 µM (inactive)
same,GI50,[35],> 100 µM (inactive)
same,GI50,[36],> 100 µM (inactive)
same,GI50,[37],> 100 µM (inactive)
same,GI50,[38],> 100 µM (inactive)
same,GI50,[39],> 100 µM (inactive)
same,GI50,[40],> 100 µM (inactive)
same,GI50,[41],> 100 µM (inactive)
same,GI50,[42],> 100 µM (inactive)
same,GI50,[43],> 100 µM (inactive)
same,GI50,[45],> 100 µM (inactive)
same,GI50,[46],0.23 µM (active)
same,GI50,[47],> 100 µM (inactive)
same,GI50,[48],> 100 µM (inactive)
same,GI50,[49],> 100 µM (inactive)
same,GI50,[50],> 100 µM (inactive)
same,GI50,[51],> 100 µM (inactive)
same,GI50,[52],> 100 µM (inactive)
same,GI50,[53],> 100 µM (inactive)
same,GI50,[54],> 100 µM (inactive)
same,GI50,[56],> 100 µM (inactive)
same,GI50,[57],> 100 µM (inactive)
same,GI50,[58],> 100 µM
same,GI50,[59],> 100 µM (inactive)
COc1cccc(-c2cc(O)c3cc(N)ccc3n2)c1,GI50,[3],7.05 µM (inactive)
same,GI50,[5],2.09 µM (inactive)
same,GI50,[7],3.75 µM (inactive)
same,GI50,[9],9.91 µM (inactive)
same,GI50,[10],7.13 µM (inactive)
same,GI50,[11],5.06 µM (inactive)
same,GI50,[12],3.44 µM (inactive)
same,GI50,[13],4.27 µM (inactive)
same,GI50,[16],2.14 µM (inactive)
same,GI50,[17],> 100 µM (inactive)
same,GI50,[18],3.22 µM (inactive)
same,GI50,[19],25.2 µM (inactive)
same,GI50,[21],> 100 µM (inactive)
same,GI50,[22],6.79 µM (inactive)
same,GI50,[24],4.05 µM (inactive)
same,GI50,[25],5.94 µM (inactive)
same,GI50,[27],2.39 µM (inactive)
same,GI50,[28],6.55 µM (inactive)
same,GI50,[29],2.54 µM (inactive)
same,GI50,[30],2.3 µM (inactive)
same,GI50,[31],2.75 µM (inactive)
same,GI50,[32],1.94 µM (inactive)
same,GI50,[33],5.26 µM (inactive)
same,GI50,[37],0.834 µM (active)
same,GI50,[39],5.92 µM (inactive)
same,GI50,[40],3.94 µM (inactive)
same,GI50,[41],2.35 µM (inactive)
same,GI50,[42],2.88 µM (inactive)
same,GI50,[43],2.09 µM (inactive)
same,GI50,[44],9.16 µM (inactive)
same,GI50,[47],7.62 µM (inactive)
same,GI50,[48],3.71 µM (inactive)
same,GI50,[49],3.62 µM (inactive)
same,GI50,[52],4.63 µM (inactive)
same,GI50,[53],2.92 µM (inactive)
same,GI50,[56],2.25 µM (inactive)
same,GI50,[58],3.47 µM
same,GI50,[59],5.81 µM (inactive)

# From ChEMBL document CHEMBL1201862, “PubChem BioAssay data set” (2004)
